Source: patent US7241785B2, “Five-membered heterocyclic alkanoic acid derivative” (Takeda Pharmaceutical Company Limited, priority 2001, dated 2007)
pEC50: −log10 of the molar value.

Biological target: T1, PPARδ-RXRα heterodimer (Homo sapiens, UniProt Q03181)
T1 sequence (Q03181 1-441): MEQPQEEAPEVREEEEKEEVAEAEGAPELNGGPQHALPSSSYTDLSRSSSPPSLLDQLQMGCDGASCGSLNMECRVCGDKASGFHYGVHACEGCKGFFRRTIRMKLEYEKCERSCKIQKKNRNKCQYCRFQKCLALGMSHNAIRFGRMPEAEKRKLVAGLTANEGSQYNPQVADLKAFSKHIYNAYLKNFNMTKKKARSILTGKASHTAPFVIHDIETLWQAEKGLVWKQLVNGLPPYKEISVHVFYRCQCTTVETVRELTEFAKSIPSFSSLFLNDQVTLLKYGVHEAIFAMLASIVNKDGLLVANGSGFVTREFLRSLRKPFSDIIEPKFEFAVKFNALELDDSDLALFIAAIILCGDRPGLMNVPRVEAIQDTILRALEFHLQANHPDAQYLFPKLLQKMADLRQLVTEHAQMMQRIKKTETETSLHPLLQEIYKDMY
T1 sequence (P19793 1-462 partner): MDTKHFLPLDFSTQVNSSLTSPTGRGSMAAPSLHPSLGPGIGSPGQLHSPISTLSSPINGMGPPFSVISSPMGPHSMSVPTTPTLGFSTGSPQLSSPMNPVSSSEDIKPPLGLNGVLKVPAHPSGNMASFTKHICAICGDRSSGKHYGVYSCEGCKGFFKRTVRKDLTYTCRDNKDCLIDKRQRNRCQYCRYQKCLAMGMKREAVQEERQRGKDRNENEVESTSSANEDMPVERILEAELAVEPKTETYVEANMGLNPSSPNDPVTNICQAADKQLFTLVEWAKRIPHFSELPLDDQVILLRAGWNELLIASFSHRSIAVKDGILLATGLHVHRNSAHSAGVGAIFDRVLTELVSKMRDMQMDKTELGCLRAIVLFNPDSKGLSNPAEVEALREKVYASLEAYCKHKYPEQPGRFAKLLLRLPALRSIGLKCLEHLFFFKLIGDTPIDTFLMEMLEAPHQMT
Assay: PPARδ-RXRα heterodimer ligand activity (luciferase reporter, PPARδ:RXRα:4ERPP/CHO-K1 cells)
Type: cell-based
Design: expressed in transfected cells
Details: concentration for 50% of maximum fold induction of luciferase, 48 hrs
Description: PPARδ-RXRα Heterodimer Ligand Activity
PPARδ:RXRα:4ERPP/CHO-K1 cells obtained in Reference Example 5a were cultured in HAM F12 medium (produced by NISSUI SEIYAKU) containing 10% fetal bovine serum (produced by Life Technologies, Inc., USA) and then seeded in a 96-well white plate (produced by Corning Costar Corporation, USA) at the density of 2×10^4 cells/well, and cultured in a CO2 gas incubator at 37° C. overnight.
After washing the 96 well white plate with PBS (Phosphate-buffered saline), 90 μl of HAM F12 medium containing 0.1% fatty acid-free bovine serum albumin (BSA) and 10 μl of test compound were added, and the cells were cultured in a CO2 gas incubator at 37° C. for 48 hrs. After removing the medium, 40 μl of PicaGene 7.5 (produced by Wako Pure Chemical Industries, Ltd.) was added. After stirring, the luciferase activity was determined using Lumistar (produced by BMG Labtechnologies GmbH, Germany).
The fold induction was calculated from the luciferase activity of each test compound when the luciferase activity in the non-treatment group is taken as 1. The values of the test compound concentration and the fold induction were analyzed using PRISM 2.01 (produced by GraphPad Software Inc. USA) to calculate the EC50 values, the effective concentration of a test compound for 50% of the maximum fold induction. […]

Q: With `Cc1oc(-c2ccccc2)nc1COc1ccc(Sc2nc(-c3ccccc3)c(CCC(=O)O)o2)cc1` [Example 10, 3-[2-[4-(5-methyl-2-phenyl-4-oxazolylmethoxy)phenylthio]-4-phenyl-5-oxazolyl]propionic acid] as the molecule, how does the pEC50 read?
A: The pEC50 was 5.68.
